In ChEMBL document CHEMBL1138381, “Synthesis and anticonvulsant activity of sulfonamide derivatives-hydrophobic domain” (Bioorg Med Chem Lett, 2007):
Activity calls are given as the source filed them. No cut-off for these calls is given here.

Legend:
Mus musculus [1] = assay: Anticonvulsant activity against maximal electroshock-induced seizure in Albino mouse at 300 mg/kg, ip after 0.5 hrs; format: functional, organism-based; set-up: dose 300 mg/kg
Mus musculus [2] = assay: Anticonvulsant activity against maximal electroshock-induced seizure in Albino mouse at 30 mg/kg, ip after 4 hrs; format: functional, organism-based; set-up: dose 30 mg/kg
Mus musculus [3] = assay: Anticonvulsant activity against pentylenetetrazole-induced seizures in Albino mouse at 300 mg/kg, ip after 0.5 hrs; format: functional, organism-based; set-up: dose 300 mg/kg
Mus musculus [4] = assay: Anticonvulsant activity against pentylenetetrazole-induced seizures in Albino mouse at 300 mg/kg, ip after 4 hrs; format: functional, organism-based; set-up: dose 300 mg/kg
Mus musculus [5] = assay: Neurotoxicity in Albino mouse at 300 mg/kg, ip after 0.5 hrs by rotarod test; format: toxicity, organism-based; set-up: dose 300 mg/kg, route intraperitoneal; conditions: in vivo
Mus musculus [6] = assay: Neurotoxicity in Albino mouse at 300 mg/kg, ip after 4 hrs by rotarod test; format: toxicity, organism-based; set-up: dose 300 mg/kg, route intraperitoneal; conditions: in vivo
Rattus norvegicus [7] = assay: Anticonvulsant activity against maximal electroshock-induced seizure in rat at 30 mg/kg, po upto 4 hrs; format: functional, organism-based; set-up: dose 30 mg/kg
Rattus norvegicus [8] = assay: Anticonvulsant activity against maximal electroshock-induced seizure in rat at 30 mg/kg, po after 0.25 hrs; format: functional, organism-based; set-up: dose 30 mg/kg
Rattus norvegicus [9] = assay: Anticonvulsant activity against maximal electroshock-induced seizure in rat at 30 mg/kg, po after 0.5 hrs; format: functional, organism-based; set-up: dose 30 mg/kg
Rattus norvegicus [10] = assay: Anticonvulsant activity against maximal electroshock-induced seizure in rat at 30 mg/kg, po after 1 hr; format: functional, organism-based; set-up: dose 30 mg/kg
Rattus norvegicus [11] = assay: Toxicity in rat at 30 mg/kg upto 4 hrs; format: organism-based; set-up: dose 30 mg/kg; conditions: in vivo
Mus musculus [12] = assay: Anticonvulsant activity against maximal electroshock-induced seizure in Albino mouse at 30 mg/kg, ip after 0.5 hrs; format: functional, organism-based; set-up: dose 30 mg/kg
Mus musculus [13] = assay: Neurotoxicity in Albino mouse at 100 mg/kg, ip after 0.5 hrs by rotarod test; format: toxicity, organism-based; set-up: dose 100 mg/kg, route intraperitoneal; conditions: in vivo
Mus musculus [14] = assay: Neurotoxicity in Albino mouse at 100 mg/kg, ip after 4 hrs by rotarod test; format: toxicity, organism-based; set-up: dose 100 mg/kg, route intraperitoneal; conditions: in vivo
Mus musculus [15] = assay: Anticonvulsant activity against maximal electroshock-induced seizure in Albino mouse at 300 mg/kg, ip after 4 hrs; format: functional, organism-based; set-up: dose 300 mg/kg
Mus musculus [16] = assay: Anticonvulsant activity against maximal electroshock-induced seizure in Albino mouse at 100 mg/kg, ip after 0.5 hrs; format: organism-based; set-up: dose 100 mg/kg, route intraperitoneal; conditions: in vivo
Mus musculus [17] = assay: Anticonvulsant activity against maximal electroshock-induced seizure in Albino mouse at 100 mg/kg, ip after 4 hrs; format: organism-based; set-up: dose 100 mg/kg, route intraperitoneal; conditions: in vivo
Mus musculus [18] = assay: Anticonvulsant activity against pentylenetetrazole-induced seizures in Albino mouse at 100 mg/kg, ip after 0.5 hrs; format: functional, organism-based; set-up: dose 100 mg/kg

| SMILES | Activity (Mus musculus [1]) | Activity (Mus musculus [2]) | Activity (Mus musculus [3]) | Activity (Mus musculus [4]) | Activity (Mus musculus [5]) | Activity (Mus musculus [6]) | Activity (Rattus norvegicus [7]) | Activity (Rattus norvegicus [8]) | Activity (Rattus norvegicus [9]) | Activity (Rattus norvegicus [10]) | Activity (Rattus norvegicus [11]) | Activity (Mus musculus [12]) | Activity (Mus musculus [13]) | Activity (Mus musculus [14]) | Activity (Mus musculus [15]) | Activity (Mus musculus [16]) | Activity (Mus musculus [17]) | Activity (Mus musculus [18]) |
| --- | --- | --- | --- | --- | --- | --- | --- | --- | --- | --- | --- | --- | --- | --- | --- | --- | --- | --- |
| CCNC(=S)Nc1ccc(S(=O)(=O)Nc2nc3ccc(Cl)cc3s2)cc1 | inactive | Active | inactive | Active | Non-toxic | Toxic | Active | inactive | inactive | inactive | Non-toxic |  |  |  |  |  |  |  |
| O=C1NC(=O)C(c2ccccc2)(c2ccccc2)N1 [PHENYTOIN] |  | Active | inactive | inactive |  |  |  |  | Active |  |  | Active | Toxic | Toxic |  |  |  |  |
| CCC1(C)CC(=O)NC1=O (stereo not given) [ETHOSUXIMIDE] | inactive |  | Active | inactive | Non-toxic | Non-toxic |  |  |  |  |  |  |  |  | inactive |  |  |  |
| CNC(=S)Nc1ccc(S(=O)(=O)Nc2nc3ccc(F)cc3s2)cc1 | Active |  | inactive | inactive | Non-toxic | Non-toxic |  |  |  |  |  |  |  |  | inactive |  |  |  |
| Cc1ccc(NC(=S)Nc2ccc(S(=O)(=O)Nc3ccc(C)cc3)cc2)cc1 | Active |  | Active | inactive | Toxic | Non-toxic |  |  |  |  |  |  |  |  | Active |  |  |  |
| CNC(=S)Nc1ccc(S(=O)(=O)Nc2ccc(Br)cc2)cc1 | Active |  | Active | inactive | Toxic | Non-toxic |  |  |  |  |  |  |  |  |  |  |  |  |
| CCNC(=S)Nc1ccc(S(=O)(=O)Nc2nc3ccc(F)cc3s2)cc1 | Active |  | Active | inactive | Non-toxic | Non-toxic |  |  |  |  |  |  |  |  | inactive |  |  |  |
| Cc1ccc(NC(=S)Nc2ccc(S(=O)(=O)Nc3ccc(Br)cc3)cc2)cc1 |  |  | Active | inactive | Toxic | Toxic |  |  |  |  |  |  |  |  | Active | Active |  |  |
| CNC(=S)Nc1ccc(S(=O)(=O)Nc2nc3ccc(OC)cc3s2)cc1 | Active |  | inactive | inactive | Non-toxic | Non-toxic |  |  |  |  |  |  |  |  | inactive |  |  |  |
| CNC(=S)Nc1ccc(S(=O)(=O)Nc2nc3ccc(Cl)cc3s2)cc1 | inactive |  | inactive | Active | Non-toxic | Toxic | Active |  |  |  | Non-toxic |  |  |  |  |  | Active |  |
| Cc1ccc(NC(=S)Nc2ccc(S(=O)(=O)Nc3ccc(Cl)cc3)cc2)cc1 |  |  | Active |  | Toxic | Toxic |  |  |  |  |  |  |  |  | Active | Active |  |  |
| CNC(=S)Nc1ccc(S(=O)(=O)Nc2ccc(Cl)cc2)cc1 | Active |  | Active |  | Toxic | Toxic |  |  |  |  |  |  |  |  | Active |  |  |  |
| CCCC(CCC)C(=O)O [VALPROIC ACID] | inactive |  | Active | inactive | Non-toxic | Non-toxic |  |  |  |  |  |  |  |  | inactive |  |  |  |
| CCNC(=S)Nc1ccc(S(=O)(=O)Nc2nc3ccc(OC)cc3s2)cc1 | inactive |  | inactive | inactive | Non-toxic | Non-toxic |  |  |  |  |  |  |  |  | inactive |  |  |  |
| NC(=O)N1c2ccccc2C=Cc2ccccc21 [CARBAMAZEPINE] |  |  |  | inactive |  | Toxic |  |  |  |  |  | Active | Toxic |  | inactive |  |  | Active |
